{"source": "paper PMC6884575", "about": "“Suppression of FOXM1 activities and breast cancer growth in vitro and in vivo by a new class of compounds” (NPJ Breast Cancer, 2019)", "key": {"[1]": {"tested_on": "MDA-MB-231 and MDA-MB-453 breast cancer cells", "assay": "Cell proliferation in triple negative MDA-MB-231 and MDA-MB-453 cells", "assay_type": "cell-based", "details": "Homo sapiens, read-out: IC50 antiproliferative", "experimental": "(§1) WST-1 assay (Roche, Basel, Switzerland) was used to quantify cell viability as described.[38] Absorbance was measured at 450 nm using a VICTOR X5 PerkinElmer 2030 Multilabel Plate Reader. All assays were performed in triplicate and analyzed using Graph Pad Prism 8.0."}, "[2]": {"target": "T1, FOXM1 (Homo sapiens, UniProt Q08050)", "T1 sequence (Q08050 1-763)": "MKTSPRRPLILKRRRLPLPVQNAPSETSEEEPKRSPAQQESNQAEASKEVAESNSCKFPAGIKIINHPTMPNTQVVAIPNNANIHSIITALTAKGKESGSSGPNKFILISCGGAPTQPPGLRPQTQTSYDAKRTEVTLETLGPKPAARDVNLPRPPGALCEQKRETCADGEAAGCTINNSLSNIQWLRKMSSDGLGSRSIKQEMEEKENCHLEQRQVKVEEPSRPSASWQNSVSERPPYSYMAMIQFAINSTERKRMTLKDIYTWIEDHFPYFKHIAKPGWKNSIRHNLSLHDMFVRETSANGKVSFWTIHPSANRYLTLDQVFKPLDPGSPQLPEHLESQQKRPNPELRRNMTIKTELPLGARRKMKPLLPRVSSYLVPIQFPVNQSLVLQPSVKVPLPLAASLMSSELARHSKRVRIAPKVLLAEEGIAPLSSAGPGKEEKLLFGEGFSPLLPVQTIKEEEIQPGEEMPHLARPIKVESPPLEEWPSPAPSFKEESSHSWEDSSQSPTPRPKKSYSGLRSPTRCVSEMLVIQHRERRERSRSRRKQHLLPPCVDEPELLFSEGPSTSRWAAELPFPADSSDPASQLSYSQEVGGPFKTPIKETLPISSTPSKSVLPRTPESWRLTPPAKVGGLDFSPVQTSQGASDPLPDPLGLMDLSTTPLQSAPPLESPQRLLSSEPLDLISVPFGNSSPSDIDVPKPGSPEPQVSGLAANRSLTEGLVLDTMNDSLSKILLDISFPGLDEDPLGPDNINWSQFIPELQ", "assay": "Intracellular localization of FOXM1 (immunofluorescence, nuclear/cytoplasmic fractionation)", "assay_type": "cell-based", "set-up": "endogenous in cells; host or cells: MDA-MB-231, MCF7", "details": "24 h, Western blot of nuclear and cytoplasmic extracts", "experimental": "(§2) In some cases, treatments with compound were done in the presence of the proteasome inhibitor MG132 (Calbiochem) as described in the figure legend. […] Band intensities were analyzed with Licor Odyssey 2.1 software. All blots shown together derive from the same experiment and were processed in parallel. Full uncropped images of blots are shown as supplementary figures in the Supplementary Information file. Molecular weight markers were Rainbow markers from GE Healthcare (38–225 kDa) or Precision Plus Dual Color Markers from Biorad (37–250 kDa)."}, "[3]": {"tested_on": "human breast cancer cell lines (DT22, MCF7, T47D, BT474, MDA-MB-453, MDA-MB-468, MDA-MB-231)", "assay": "Cell proliferation (WST-1) in panel of breast cancer cell lines", "assay_type": "cell-based", "experimental": "as §1"}, "[4]": {"target": "T1, FOXM1", "assay": "Cellular FOXM1 protein level by Western blot", "assay_type": "cell-based", "set-up": "endogenous in cells; host or cells: MDA-MB-231, MCF7", "details": "MDA-MB-231 or MCF7 cells over time; NB-55 5/8 µM, NB-73 1.5/4 µM, NB-115 4 µM, FDI-6 8 µM", "experimental": "as §2, with “For Western blot analysis, whole-cell extracts were prepared using 1X RIPA lysis buffer (Thermo Fisher) supplemented with 1X protease inhibitor cocktail (Millipore Sigma). […] In some” for “In some”"}, "[5]": {"assay": "Pharmacokinetics in mice after single s.c. or oral dose", "assay_type": "in vivo, female CD1 mice", "details": "for AUC / Cmax / half-life: female, CD1, mouse, 40 mg/kg, single dose, plasma", "method": "The pharmacokinetics of compounds were monitored after single dose administration into female CD1 mice (7–9 weeks of age) via s.c. injection or oral gavage, as described.[39] For s.c. injection, each compound was dissolved in DMSO and then mixed with corn oil for a total injection volume of 100 μL (10% DSMO + 90% corn oil) per mouse. For oral gavage, compounds were administered in a 200 µL formulation of 9/0.5/0.5/90 parts of PEG400/Tween80/Povidone/0.5% Carboxymethylcellulose in DI water. […] Compounds were quantified by LC-MS/MS at the University of Illinois Metabolomics Core Facility. The data were fitted to a non-compartment model."}, "[6]": {"tested_on": "DT22 breast tumor xenografts", "assay": "DT22 human breast tumor xenograft growth in NSG mice", "assay_type": "in vivo", "experimental": "For examination of the effects of compounds on breast tumor growth suppression, intact female NOD/SCID-gamma (NSG) mice were used as detailed previously.[39] DT-22 breast cancer cells (1 × 10^6 cells/mouse) were injected s.c. into the right axial mammary gland. Mice received s.c. injection or oral gavage daily or every second or third day as indicated, with vehicle or treatment compound, and tumor volume (length × width^2/2) was monitored over time."}, "[7]": {"tested_on": "MCF10A breast cell line", "assay": "Cell proliferation in non-tumorigenic MCF10A cells", "assay_type": "cell-based, human", "details": "low level of FOXM1", "experimental": "as §1"}, "[8]": {"tested_on": "FOXM1 target gene expression in MCF7 cells", "assay": "FOXM1 target gene expression by qRT-PCR", "assay_type": "cell-based, human", "details": "MCF7, 24 h, compound at its IC50 for proliferation", "experimental": "Total RNA was isolated using TRIzol (Invitrogen) and reverse transcribed using […] reverse transcriptase (New England BioLabs). Real-time PCR was performed using SYBRgreen PCR Master Mix (Quantabio) as described.[15] Relative mRNA levels of genes were normalized to the housekeeping gene 36B4, and fold-change calculated relative to the vehicle treated samples. Results are the average ± SD from at least two independent experiments carried out in triplicate. Primer sequences for the genes studied were obtained from the Harvard Primer Bank. Sequences are available on their website."}}}
{"smiles": "Clc1ccc(C(=C2C3CC4CC(C3)CC2C4)c2ccc(OCCCCCCN3CCCC3)cc2)cc1", "note": "[NB-55]", "values": [{"measurement": "IC50", "setting": "[1]", "result": "3 to 5", "unit": "µM"}, {"measurement": "intracellular localization of FOXM1", "setting": "[2]", "result": "does not change the intracellular localization of FOXM1"}, {"measurement": "IC50", "setting": "[3]; Homo sapiens, breast cancer cell lines, read-out: IC50 for inhibition of proliferation", "result": "2 to 10", "unit": "µM"}, {"measurement": "reduced potency in suppression of cell proliferation", "setting": "[3]; dose-response studies in cells in culture", "result": 5, "unit": "fold"}, {"measurement": "intracellular level of FOXM1", "setting": "[4]", "result": "reduced the intracellular level of FOXM1"}, {"measurement": "PK properties (half-lives and blood levels achieved)", "setting": "[5]; after oral administration", "result": "good PK properties"}, {"measurement": "PK properties (half-lives and blood levels achieved)", "setting": "[5]; after s.c. administration", "result": "good PK properties"}, {"measurement": "AUC", "setting": "[5]; oral", "result": 35.7, "unit": "µM·h"}, {"measurement": "Cmax", "setting": "[5]; oral", "result": 2380, "unit": "nM"}, {"measurement": "half-life", "setting": "[5]; oral", "result": 1.2, "unit": "days"}, {"measurement": "AUC", "setting": "[5]; sc", "result": 34.7, "unit": "µM·h"}, {"measurement": "Cmax", "setting": "[5]; sc", "result": 1200, "unit": "nM"}, {"measurement": "half-life", "setting": "[5]; sc", "result": 5.63, "unit": "days"}, {"measurement": "tumor suppression", "setting": "[6]; 20 or 40 mg/kg doses (data not shown)", "result": "only marginally effective"}, {"measurement": "growth of human breast tumor xenografts", "setting": "[6]; DT22 tumors, NSG mice, 100 mg/kg oral gavage daily", "result": "very effectively suppressed the growth"}, {"measurement": "concentration for 50% suppression of proliferation relative to breast cancer cell lines", "setting": "[7]", "result": "five times higher"}, {"measurement": "expression of ATF3, a gene suppressed by FOXM1", "setting": "[8]", "result": "increased expression of ATF3"}, {"measurement": "expression of FOXM1 stimulated target genes (FOXM1C, AURKB, CCNB1, PLK1)", "setting": "[8]", "result": "significantly reduced the expression"}]}
